Test results reported in BindingDB's records for doi:10.1021/jm00126a039 (University of Wisconsin-Madison, 1989).

Target: T1, Gastricsin (Rattus norvegicus, UniProt P04073)
T1 sequence (P04073 whole entry): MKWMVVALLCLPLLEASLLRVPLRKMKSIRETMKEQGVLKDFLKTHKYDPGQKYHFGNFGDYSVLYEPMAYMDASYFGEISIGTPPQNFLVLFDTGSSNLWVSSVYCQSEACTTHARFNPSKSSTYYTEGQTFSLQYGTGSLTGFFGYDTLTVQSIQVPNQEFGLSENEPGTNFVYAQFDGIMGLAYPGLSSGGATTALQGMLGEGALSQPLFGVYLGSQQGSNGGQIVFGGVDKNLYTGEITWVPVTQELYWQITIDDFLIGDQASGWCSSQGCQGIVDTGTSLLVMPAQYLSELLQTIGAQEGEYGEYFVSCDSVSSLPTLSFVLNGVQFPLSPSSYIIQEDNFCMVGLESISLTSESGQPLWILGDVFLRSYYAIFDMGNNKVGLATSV
Experiment: ChEBML_154148
Excerpt: Inhibition of enzyme pepsin

Structure (SMILES): CCC(NC(=O)[C@H](C)NC(=O)[C@H](C)C[C@H](O)[C@H](CC(C)C)NC(=O)[C@@H](NC(=O)CC(C)C)C(C)C)C(=O)O (stereo partly drawn)
- Ki: 3 nM

Structure (SMILES): CC(C)CCNC(=O)[C@H](C)NC(=O)C[C@H](O)[C@H](CC(C)C)NC(=O)[C@@H](NC(=O)CC(C)C)C(C)C [3-Hydroxy-6-methyl-4-[3-methyl-2-(3-methyl-butyrylamino)-butyrylamino]-heptanoic acid [1-(3-methyl-butylcarbamoyl)-ethyl]-amide]
- Ki: 3 nM

Structure (SMILES): CCC(NC(=O)[C@H](C)NC(=O)[C@H](C)CC(=O)[C@H](CC(C)C)NC(=O)[C@@H](NC(=O)CC(C)C)C(C)C)C(=O)O (stereo partly drawn)
- Ki: 110 nM
